Structures are written as SMILES. pEC50: −log10 of the molar value.

In one test the target is T1, human FPR2 (Homo sapiens, UniProt P25090).
T1 sequence (P25090 1-351): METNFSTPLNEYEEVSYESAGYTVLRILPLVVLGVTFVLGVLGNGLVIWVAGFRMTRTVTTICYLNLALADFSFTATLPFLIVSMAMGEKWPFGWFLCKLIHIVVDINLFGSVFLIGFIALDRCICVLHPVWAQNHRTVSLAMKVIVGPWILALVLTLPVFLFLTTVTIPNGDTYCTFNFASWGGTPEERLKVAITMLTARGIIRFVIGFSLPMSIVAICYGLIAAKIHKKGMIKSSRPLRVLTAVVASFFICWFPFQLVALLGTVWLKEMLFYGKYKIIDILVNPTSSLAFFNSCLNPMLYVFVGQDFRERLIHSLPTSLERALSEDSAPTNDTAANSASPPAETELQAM
Kind of test: FPR2 cyclic adenosine monophosphate (cAMP) assay. The test is classed as cell-based. To be noted: CHO cells overexpressing human FPR2; forskolin 5 μM; inhibition of cAMP production; HTRF; read-out: hFPR2 cAMP2 EC50. As to the method:
(§1) FPR2 and FPR1 Cyclic Adenosine Monophosphate (cAMP) Assays. A mixture of forskolin (5 μM final for FPR2 or 10 μM final for FPR1) and IBMX (200 μM final) were added to 384-well Proxiplates (Perkin-Elmer) pre-dotted with test compounds in DMSO (1% final) at final concentrations in the range of 0.020 nM to 100 μM. Chinese Hamster Ovary cells (CHO) overexpressing human FPR1 or human FPR2 receptors were cultured in F-12 (Ham's) medium supplemented with 10% qualified FBS, 250 μg/ml zeocin and 300 μg/ml hygromycin (Life Technologies). Reactions were initiated by adding 2,000 human FPR2 cells per well or 4,000 human FPR1 cells per well in Dulbecco's PBS (with calcium and magnesium) (Life Technologies) supplemented with 0.1% BSA (Perkin-Elmer). The reaction mixtures were incubated for 30 min at room temperature. The level of intracellular cAMP was determined using the HTRF HiRange cAMP assay reagent kit (Cisbio) according to manufacturer's instruction. Solutions of cryptate conjugated anti-cAMP and d2 flurorophore-labelled cAMP were made in a supplied lysis buffer separately. Upon completion of the reaction, the cells were lysed with equal volume of the d2-cAMP solution and anti-cAMP solution. After a 1-h room temperature incubation, time-resolved fluorescence intensity was measured using the Envision (Perkin-Elmer) at 400 nm excitation and dual emission at 590 nm and 665 nm. A calibration curve was constructed with an external cAMP standard at concentrations ranging from 1 μM to 0.1 μM by plotting the fluorescent intensity ratio from 665 nm emission to the intensity from the 590 nm emission against cAMP concentrations. The potency and activity of a compound to inhibit cAMP production was then determined by fitting to a 4-parametric logistic equation from a plot of cAMP level versus compound concentrations.

The target of a further test is T2, human FPR1 (Homo sapiens, UniProt P21462).
T2 sequence (P21462 1-350): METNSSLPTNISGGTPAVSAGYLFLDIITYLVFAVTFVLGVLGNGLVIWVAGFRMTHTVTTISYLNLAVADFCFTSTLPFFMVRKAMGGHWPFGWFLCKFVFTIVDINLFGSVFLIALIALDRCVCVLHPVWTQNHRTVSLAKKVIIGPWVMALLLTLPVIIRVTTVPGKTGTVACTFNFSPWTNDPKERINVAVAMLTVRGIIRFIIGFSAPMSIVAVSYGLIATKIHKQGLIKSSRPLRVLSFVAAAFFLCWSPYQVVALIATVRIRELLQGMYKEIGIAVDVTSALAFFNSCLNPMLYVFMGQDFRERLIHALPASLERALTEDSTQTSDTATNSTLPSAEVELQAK
Kind of test: FPR1 cyclic adenosine monophosphate (cAMP) assay. The test is classed as cell-based. As to conditions: CHO cells overexpressing human FPR1; forskolin 10 μM; inhibition of cAMP production; HTRF; read-out: hFPR1 cAMP2 EC50. As for the experimental part: as §1

In the case of `COc1ccc(-n2cc(-c3nc4ccccc4s3)nc2NC(=O)c2ccc(OC(F)F)cc2)cc1` [Example 23, N-[4-(1,3-Benzothiazol-2-yl)-1-(4-methoxyphenyl)-1H-imidazol-2-yl]-4-(difluoromethoxy)benzamide], the pEC50 on human FPR2 was 7.55; on human FPR1, 7.36.
Turning to `COc1ccc(-n2cc(-c3nccs3)nc2NC(=O)c2ccc(OC(F)F)cc2)cc1` [Example 24, 4-(Difluoromethoxy)-N-[1-(4-methoxyphenyl)-4-(1,3-thiazol-2-yl)-1H-imidazol-2-yl]benzamide], the pEC50 on human FPR2 is 8.05; on human FPR1 it was 6.96.
The matching figures for `COc1ccc(-n2cc(-c3ccccc3F)nc2NC(=O)c2ccc(OC(F)F)cc2)cc1` [Example 25, 4-(Difluoromethoxy)-N-[4-(2-fluorophenyl)-1-(4-methoxyphenyl)-1H-imidazol-2-yl]benzamide]: 8.22 and 7.33.
For the compound `COc1ccc(-n2cc(-c3cc4cc(Cl)ccc4o3)nc2NC(=O)c2ccc(OC(F)F)cc2)cc1` [Example 26, N-[4-(5-Chloro-1-benzofuran-2-yl)-1-(4-methoxyphenyl)-1H-imidazol-2-yl]-4-(difluoromethoxy)benzamide], the pEC50 on human FPR2 was 7.14; on human FPR1 it was 6.40.
For `COc1ccc(-n2cc(C3CCCCC3)nc2NC(=O)c2ccc(OC(F)F)cc2)cc1` [Example 27, N-[4-Cyclohexyl-1-(4-methoxyphenyl)-1H-imidazol-2-yl]-4-(difluoromethoxy)benzamide], in that order: 7.26 and 6.18.
The matching figures for `COc1ccc(-n2cc(-c3ccccn3)nc2NC(=O)c2ccc(OC(F)F)cc2)cc1` [Example 28, 4-(Difluoromethoxy)-N-[1-(4-methoxyphenyl)-4-(pyridin-2-yl)-1H-imidazol-2-yl]benzamide]: 6.15 and 5.99.
The matching figures for `CCOC(=O)c1cc(-c2cn(-c3ccc(OC)cc3)c(NC(=O)c3ccc(OC(F)F)cc3)n2)on1` [Example 29, Ethyl 5-{2-[4-(difluoromethoxy)benzamido]-1-(4-methoxyphenyl)-1H-imidazol-4-yl}-1,2-oxazole-3-carboxylate]: 7.82 and 7.49.
Take `CCOC(=O)c1cn(-c2ccc(OC)cc2)c(NC(=O)c2ccc(OC(F)F)cc2)n1` [Example 30, Ethyl 2-[4-(difluoromethoxy)benzamido]-1-(4-methoxyphenyl)-1H-imidazole-4-carboxylate]: the negative logarithm of the EC50 (pEC50) is 8.05 on human FPR2 and 7.00 at human FPR1.
For the compound `COc1ccc(-n2cc(C34CC5CC(CC(C5)C3)C4)nc2NC(=O)c2ccc(OC(F)F)cc2)cc1` [Example 31, N-[4-(Adamantan-1-yl)-1-(4-methoxyphenyl)-1H-imidazol-2-yl]-4-(difluoromethoxy)benzamide], the pEC50 at human FPR2 is 6.49; at human FPR1, under 5.00.
The matching figures for `COc1ccc(-n2cc(C(C)(C)C)nc2NC(=O)c2ccc(OC(F)F)cc2)cc1` [Example 32, N-[4-Tert-butyl-1-(4-methoxyphenyl)-1H-imidazol-2-yl]-4-(difluoromethoxy)benzamide]: 7.74 and 6.96.
The matching figures for `COc1cc(F)c(-n2cc(-c3ccccc3F)nc2NC(=O)c2ccc(OC(F)F)cc2)c(F)c1` [Example 33, N-[1-(2,6-Difluoro-4-methoxyphenyl)-4-(2-fluorophenyl)-1H-imidazol-2-yl]-4-(difluoromethoxy)benzamide]: 7.41 and 6.03.
On to `COc1cc(F)c(-n2cc(-c3ccnc(Cl)c3)nc2NC(=O)c2ccc(OC(F)F)cc2)c(F)c1` [Example 34, N-[4-(2-Chloropyridin-4-yl)-1-(2,6-difluoro-4-methoxyphenyl)-1H-imidazol-2-yl]-4-(difluoromethoxy)benzamide], for which the pEC50 on human FPR2 was 7.80; at human FPR1, 6.92.
With `COc1cc(F)c(-n2cc(CC(C)C)nc2NC(=O)c2ccc(OC(F)F)cc2)c(F)c1` [Example 35, N-[1-(2,6-Difluoro-4-methoxyphenyl)-4-(2-methylpropyl)-1H-imidazol-2-yl]-4-(difluoromethoxy)benzamide], the pEC50 at human FPR2 was 7.00; on human FPR1, 5.85.
For the compound `COc1cc(F)c(-n2cc(-c3ccc(F)c(F)c3)nc2NC(=O)c2ccc(OC(F)F)cc2)c(F)c1` [Example 36, N-[1-(2,6-Difluoro-4-methoxyphenyl)-4-(3,4-difluorophenyl)-1H-imidazol-2-yl]-4-(difluoromethoxy)benzamide], the pEC50 is 7.51 at human FPR2 and 6.49 at human FPR1.
`COc1cc(F)c(-n2cc(C3CC3)nc2NC(=O)c2ccc(OC(F)F)cc2)c(F)c1` [Example 37, N-[4-Cyclopropyl-1-(2,6-difluoro-4-methoxyphenyl)-1H-imidazol-2-yl]-4-(difluoromethoxy)benzamide]: the pEC50 on human FPR2 was 7.80; at human FPR1, 6.10.
Turning to `CCOC(=O)c1cn(-c2c(F)cc(OC)cc2F)c(NC(=O)c2ccc(OC(F)F)cc2)n1` [Example 38, Ethyl 1-(2,6-difluoro-4-methoxyphenyl)-2-[4-(difluoromethoxy)benzamido]-1H-imidazole-4-carboxylate], the negative-log EC50 (pEC50) on human FPR2 was 7.82; on human FPR1, 6.21.
In the case of `CCc1cn(-c2c(F)cc(OC)cc2F)c(NC(=O)c2ccc(OC(F)F)cc2)n1` [Example 39, N-[1-(2,6-Difluoro-4-methoxyphenyl)-4-ehtyl-1H-imidazol-2-yl]-4-(difluoromethoxy)benzamide], the figures for the pEC50 on human FPR2 and on human FPR1 were 7.68 and 6.00, respectively.
For `COc1cc(F)c(-n2cc(-c3nccs3)nc2NC(=O)c2ccc(OC(F)F)cc2)c(F)c1` [Example 40, N-[1-(2,6-Difluoro-4-methoxyphenyl)-4-(1,3-thiazol-2-yl)-1H-imidazol-2-yl]-4-(difluoromethoxy)benzamide], in that order: 7.96 and 6.00.
Consider `COc1cc(F)c(-n2cc(C3CCOCC3)nc2NC(=O)c2ccc(OC(F)F)cc2)c(F)c1` [Example 41, N-[1-(2,6-Difluoro-4-methoxyphenyl)-4-(oxan-4-yl)-1H-imdiazol-2-yl]-4-(difluoromethoxy)benzamide], for which the results for the pEC50 on human FPR2 and on human FPR1 were 7.59 and 6.64, respectively.
For `COc1ccc(-n2cc(C(F)(F)C(F)(F)F)nc2NC(=O)c2ccc(OC(F)F)cc2)cc1` [Example 42, 4-(Difluoromethoxy)-N-[1-(4-methoxyphenyl)-4-(1,1,2,2,2-pentafluoroethyl)-1H-imidazol-2-yl]benzamide], in that order: 7.32 and 7.24.
For `COc1ccc(-n2cc(C(F)(F)F)nc2NC(=O)c2ccc(OC(F)F)cc2)cc1` [Example 43, 4-(Difluoromethoxy)-N-[1-(4-methoxyphenyl)-4-(trifluoromethyl)-1H-imidazol-2-yl]benzamide], in that order: 8.00 and 7.40.
For `COc1cc(F)c(-n2cc(C(=O)NCc3cc[nH]n3)nc2NC(=O)c2ccc(OC(F)F)cc2)c(F)c1` [Example 44, 1-(2,6-Difluoro-4-methoxyphenyl)-2-[4-(difluoromethoxy)benzamido]-N-[(1H-pyrazol-3-yl)methyl]-1H-imidazole-4-carboxamide], the figures for the pEC50 on human FPR2 and on human FPR1 were 7.32 and 6.43, respectively.

Values taken from US20230373930A1, “AMINOIMIDAZOLE FPR2 AGONISTS” (BRISTOL-MYERS SQUIBB COMPANY, priority 2020, published 2023).
